Columns and labels:
HeLa cells = assay: MTS cell proliferation and/or cytotoxicity assay; type: cell-based, Human; details: Homo sapiens, HeLa, 72 h, concentration at which 50% of antiproliferative cell response is seen; 3 days incubation; read-out: MTS Data Hella
Protocol: Cell culture. Human cervical epithelial cells (HeLa cells) were obtained from American Type Culture Collection (Manassas, Va.). Cells were grown in Eagle's minimum essential medium (MEM, Hyclone, Utah) supplemented with 2 mM Glutamine, 0.1 mM nonessential amino acid, 1 mM Na Pyruvate, 1.5 g/L NaHCO3, 50 mg/L gentamicin, and 10% fetal bovine serum (Hyclone, USA) in a humidified atmosphere of 5% CO2 at 37° C.
MTS assays. Antiproliferative effects of the compounds were tested by the CellTiter 96 AQueous assay (Promega, WI), which is a calorimetric assay for determining the number of viable cells. (See, e.g., Wang, L., et al., Methods Cell Sci (1996) 18:249-255). In one example, cells (4,500 cells/well) were seeded on 96 well flat bottom plates (Corning, N.Y.) in 100 μl of culture medium without any anticancer drug on day 0, and the culture medium was exchanged for that //contained anticancer drugs at various concentrations on day 1. After incubation for 3 days under normal growth conditions (on day 4), the monolayers were washed once in PBS, and the medium was switched to 100 μl of PBS in each of the 96 well plate. After mixing MTS and PMS at the ratio of 20:1, 20 μl of MTS/PMS solution was added to each of the 96 well plate and incubated for 4 hours in a humidified atmosphere of 5% CO2 at 37° C. The absorbance was read at 490 nm using FLUOstar Galaxy 96 well plate reader (BMG Labtechnologies, Germany). μM concentrations (MTS data) reported in Table 1 are concentrations at which 50% of antiproliferative cell response is seen.

[1] = molecular target: c-Myc template DNA (c-myc quadruplex); assay: Quadruplex binding / stop assay (Taq polymerase arrest, capillary electrophoresis); details: read-out: Stop Data c-Myc μM; concentration at which 50% of the DNA was arrested (arrested:full-length 1:1)

Row | SMILES | IC50 (HeLa cells) [nM] | IC50 [1] [µM]
1 | CC(C)NCCCNC(=O)c1cn2c3c(c(N4CCC(NC(=O)OC(C)(C)C)C4)c(F)cc3c1=O)Oc1cc3ccccc3cc1-2 (stereo not drawn) [compound 312] | 1900 | 1
2 | CN1CCN(c2c(F)cc3c(=O)c(C(=O)NCCN4CCCC4)cn4c5cc6c(=O)c7ccccc7c(=O)c6cc5oc2c34)CC1 [compound 340] | 8500 | 0.9
3 | N[C@H]1CCN(c2c(F)cc3c(=O)c(C(=O)NCCN4CCCC4)cn4c3c2Oc2cc3ccccc3cc2-4)C1 [compound 341] | 280 | 0.9
4 | CN(C)CCCCNC(=O)c1cn2c3c(c(N4CC[C@@H](NC(=O)CCN5CCN(C)CC5)C4)c(F)cc3c1=O)Oc1cc3c(cc1-2)oc1ccccc13 [compound 357] | 8600 | 0.75
5 | O=C(CCNCCN1CCOCC1)N[C@@H]1CCN(c2c(F)cc3c(=O)c(C(=O)NCCN4CCCC4)cn4c3c2Oc2cc3c(cc2-4)oc2ccccc23)C1 [compound 358] | 5700 | 0.75
6 | CN(C)CCCCNC(=O)c1cn2c3cc4oc5cc([N+](=O)[O-])ccc5[nH]c4cc3oc3c(NCCN4CCCC4)c(F)cc(c1=O)c32 [compound 359] | 4800 | 0.75
7 | CN1CCN(CCC(=O)N[C@@H]2CCN(c3c(F)cc4c(=O)c(C(=O)NCCC5CCCN5C)cn5c4c3Oc3cc4c(cc3-5)oc3ccccc34)C2)CC1 (stereo partly drawn) [compound 360] | 4500 | 0.75
8 | O=C(NCCN1CCOCC1)c1cn2c3c(c(NCCCN4CCOCC4)c(F)cc3c1=O)Oc1cc3c(cc1-2)oc1ccccc13 [compound 361] | 4200 | 0.75
9 | CN1CCCC1CCNC(=O)c1cn2c3c(c(NCCCN4CCOCC4)c(F)cc3c1=O)Oc1cc3c(cc1-2)oc1ccccc13 (stereo not drawn) [compound 362] | 4000 | 0.75
10 | CN1CCN(CCCNc2c(F)cc3c(=O)c(C(=O)NCCC4CCCN4C)cn4c3c2Oc2cc3c(cc2-4)oc2ccccc23)CC1 (stereo not drawn) [compound 363] | 3800 | 0.75
11 | CN1CCN(CCCNC(=O)c2cn3c4c(c(NCCC5CCCN5C)c(F)cc4c2=O)Oc2cc4c(cc2-3)oc2ccccc24)CC1 (stereo not drawn) [compound 364] | 3800 | 0.75
12 | CN1CCN(CCCNC(=O)c2cn3c4c(c(NCCN5CCCC5)c(F)cc4c2=O)Oc2cc4c(cc2-3)oc2ccccc24)CC1 [compound 365] | 3800 | 0.75
13 | CN(C)CCCCNc1c(F)cc2c(=O)c(C(=O)NCCC3CCCN3C)cn3c2c1Oc1cc2c(cc1-3)oc1ccccc12 (stereo not drawn) [compound 366] | 3700 | 0.75
14 | CN(C)CCCCNC(=O)c1cn2c3c(c(NCCCCN(C)C)c(F)cc3c1=O)Oc1cc3c(cc1-2)oc1ccccc13 [compound 367] | 3700 | 0.75
15 | O=C(NCCCn1ccnc1)c1cn2c3c(c(NCCN4CCCC4)c(F)cc3c1=O)Oc1cc3c(cc1-2)oc1ccccc13 [compound 368] | 3600 | 0.75
16 | CN(C)CCCCNc1c(F)cc2c(=O)c(C(=O)NCCN3CCCC3)cn3c2c1Oc1cc2c(cc1-3)oc1ccccc12 [compound 369] | 3500 | 0.75
17 | CC(=O)N[C@@H]1CCC(c2c(F)cc3c(=O)c(C(=O)NCCN4CCCC4)cn4c3c2Oc2cc3c(cc2-4)oc2ccccc23)C1 (stereo partly drawn) [compound 370] | 3500 | 0.75
18 | CN(C)/C=N/CCCNC(=O)c1cn2c3c(c(N4CC[C@@H](N)C4)c(F)cc3c1=O)Oc1cc3ccccc3cc1-2 [compound 371] | 3500 | 0.75
19 | CN1CCCC1CCNC(=O)c1cn2c3c(c(NCCC4CCCN4C)c(F)cc3c1=O)Oc1cc3c(cc1-2)oc1ccccc13 (stereo not drawn) [compound 372] | 3400 | 0.75
20 | O=C(NCCN1CCCC1)c1cn2c3c(c(NCCCN4CCOCC4)c(F)cc3c1=O)Oc1cc3c(cc1-2)-c1ccccc1C3 [compound 373] | 3300 | 0.75
21 | CC(=O)N[C@@H]1CCN(c2c(F)cc3c(=O)c(C(=O)NCCCCN(C)C)cn4c3c2Oc2cc3c(cc2-4)oc2ccccc23)C1 [compound 374] | 3300 | 0.75
